# Assay results: PMC2854646 (Oncogene, 2008)
# Molecular target: T1, E1 (ubiquitin-activating enzyme) (Homo sapiens, UniProt P22314)
# T1 sequence (P22314 2-1058): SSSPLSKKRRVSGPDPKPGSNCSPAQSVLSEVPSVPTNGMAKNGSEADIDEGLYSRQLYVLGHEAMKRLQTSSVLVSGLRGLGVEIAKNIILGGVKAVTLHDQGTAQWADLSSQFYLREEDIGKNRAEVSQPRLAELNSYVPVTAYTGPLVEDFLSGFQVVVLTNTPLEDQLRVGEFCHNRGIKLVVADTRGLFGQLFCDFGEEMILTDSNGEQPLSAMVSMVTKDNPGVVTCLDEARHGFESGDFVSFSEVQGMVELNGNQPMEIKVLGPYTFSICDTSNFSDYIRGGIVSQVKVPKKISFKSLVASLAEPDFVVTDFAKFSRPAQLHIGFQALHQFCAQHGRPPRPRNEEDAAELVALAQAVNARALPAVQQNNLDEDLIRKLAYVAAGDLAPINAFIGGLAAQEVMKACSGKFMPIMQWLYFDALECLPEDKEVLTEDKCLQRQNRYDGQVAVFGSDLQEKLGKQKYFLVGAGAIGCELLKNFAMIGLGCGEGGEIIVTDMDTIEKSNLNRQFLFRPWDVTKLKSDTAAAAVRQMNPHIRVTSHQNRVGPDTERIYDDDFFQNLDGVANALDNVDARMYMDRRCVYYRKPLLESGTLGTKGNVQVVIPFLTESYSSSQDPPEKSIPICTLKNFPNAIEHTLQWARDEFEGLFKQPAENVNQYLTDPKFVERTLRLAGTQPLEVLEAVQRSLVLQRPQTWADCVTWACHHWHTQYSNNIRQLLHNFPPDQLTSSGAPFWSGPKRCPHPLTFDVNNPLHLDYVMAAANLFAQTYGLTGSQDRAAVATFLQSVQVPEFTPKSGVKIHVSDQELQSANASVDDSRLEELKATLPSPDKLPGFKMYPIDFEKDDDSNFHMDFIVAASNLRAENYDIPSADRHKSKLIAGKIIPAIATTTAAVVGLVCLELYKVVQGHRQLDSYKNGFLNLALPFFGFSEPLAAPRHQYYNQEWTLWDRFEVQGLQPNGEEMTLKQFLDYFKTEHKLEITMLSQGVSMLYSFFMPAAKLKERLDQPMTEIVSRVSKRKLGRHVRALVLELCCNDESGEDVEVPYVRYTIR
# Assay: ubiquitin~E1 thioester immunoblot
# Assay type: cell-based
smiles,measurement,value
"CCOC(=O)N1CCN(/[N+]([O-])=N/Oc2ccc([N+](=O)[O-])cc2[N+](=O)[O-])CC1 [JS-K, O^2-(2,4-dinitrophenyl) 1-[(4-ethoxycarbonyl)piperazin-1-yl]diazen-1-ium-1,2-diolate]",IC50,~2000 nM
